We go through 7 compounds from ChEMBL document CHEMBL2150990, “Substrate-like water soluble lipase inhibitors from Filipendula kamtschatica” (Bioorg Med Chem Lett, 2012).

Assay [1] addresses T1, Pancreatic triacylglycerol lipase (Sus scrofa, UniProt P00591).
T1 sequence (P00591 whole entry): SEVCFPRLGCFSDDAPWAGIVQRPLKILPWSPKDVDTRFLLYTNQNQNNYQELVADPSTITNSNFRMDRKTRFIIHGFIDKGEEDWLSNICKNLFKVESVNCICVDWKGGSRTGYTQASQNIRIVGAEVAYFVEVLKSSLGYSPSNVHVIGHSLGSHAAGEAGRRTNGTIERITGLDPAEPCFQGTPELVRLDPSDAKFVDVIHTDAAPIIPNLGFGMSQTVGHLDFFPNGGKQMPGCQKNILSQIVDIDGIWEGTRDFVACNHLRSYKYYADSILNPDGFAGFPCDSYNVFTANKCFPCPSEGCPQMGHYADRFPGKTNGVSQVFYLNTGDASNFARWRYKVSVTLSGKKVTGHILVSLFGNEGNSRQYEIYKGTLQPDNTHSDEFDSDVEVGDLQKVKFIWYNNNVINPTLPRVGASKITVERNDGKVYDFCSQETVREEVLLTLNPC
Description: Inhibition of porcine pancreatic lipase using micellar solution of triolein as substrate preincubated for 5 mins before substrate addition measured after 30 mins.

Assay [2] addresses T2, Pancreatic triacylglycerol lipase (Sus scrofa) (UniProt P00591).
T2 sequence (whole entry): T1 sequence (P00591 whole entry)
Description: Inhibition of porcine pancreatic lipase using micellar solution of triolein as substrate at 1 mM preincubated for 5 mins before substrate addition measured after 30 mins.

The target of assay [3] is T2, Pancreatic triacylglycerol lipase (Sus scrofa). As to conditions: 0.4 uM.
Description: Inhibition of porcine pancreatic lipase using micellar solution of triolein as substrate at 0.4 uM preincubated for 5 mins before substrate addition measured after 30 mins

For `O=C(O)[C@H](O)[C@@H](O)CO` [L-THREONIC ACID], in assay [1], the IC50 (in general, the concentration at which inhibition is half-maximal) was above 1000 µM. In addition, the inhibition (in general, the percentage by which the read-out fell short of the control) in assay [2] was determined as 30%.

As to `O=C(/C=C/c1ccc(O)c(O)c1)O[C@@H](COC(=O)c1cc(O)c(O)c(O)c1)[C@@H](O)C(=O)O`, in assay [1], it took 26 µM to reach half-maximal inhibition (IC50).

Consider `O=C(O)/C=C/c1ccc(O)c(O)c1` [CAFFEIC ACID], for which the IC50 in assay [1] is above 1000 µM. Further, the inhibition in assay [2] was 13%.

In the case of `O=C(/C=C/c1ccc(O)c(O)c1)O[C@@H](C(=O)O)[C@@H](O)COC(=O)c1cc(O)c(O)c(O)c1`, half-maximal inhibition in assay [1] (IC50) required 246 µM.

Compound `O=C(O)c1cc(O)c(O)c(O)c1` [GALLIC ACID] came in with an IC50 in assay [1] above 1000 µM. Moreover, in assay [2], the inhibition came to 4%.

Regarding `CCCCCCCCCCC[C@@H](C[C@@H]1OC(=O)[C@H]1CCCCCC)OC(=O)[C@H](CC(C)C)NC=O`, the inhibition in assay [3] is 55%.

Regarding `O=c1c(O[C@@H]2O[C@H](CO)[C@H](O)[C@H](O)[C@H]2O[C@@H]2OC[C@@H](O)[C@H](O)[C@H]2O)c(-c2ccc(O)c(O)c2)oc2cc(O)cc(O)c12`, the IC50 in assay [1] was found to be 300 µM.
